# In US20120052528A1, “METHOD FOR PRODUCING SELECTIVE MEDIUM AND USE THEREOF” (THE UNIVERSITY OF TOKYO, priority 2009, published 2012):
# Experiments:
# [1] = test system: contaminating germs in soil; assay: Limited search of carbon sources: assimilation by contaminating germs in soil; type: cell-based; conditions: conclusion from Table 5
# other bacterial cells = assay: Limited search of carbon sources: colony formation of other bacterial cells from a soil suspension on carbon-source agar medium; conditions: soil suspension smeared on agar medium with the carbon source, 30° C., 5 days; relative value, carbon source-free medium = 100%
# Method: (§1) Any carbon source, crystal violet (antibiotic) and agar are mixed with basic medium components so as to prepare an agar medium. A soil suspension (100 p1) prepared by suspending of soil for plant cultivation (1 g) in water (100 ml) is smeared (repeatedly 3 times) on the medium, followed by culture at 30° C. for 5 days. The numbers of colonies of filamentous bacterial cells and other bacterial cells that are formed on the medium are counted. Each counted value is represented as a relative value (%) determined based on the number of colonies formed on a “carbon source-free” medium (100%). If the degree of colony formation is less than 30 (for filamentous bacterial cells) and is less than 60 (for bacterial cells), the carbon source is selected as a carbon source having high growth inhibitory effects. The smaller value indicates the smaller number of contaminating germs (filamentous bacteria and other bacteria) that assimilate the carbon source.
# [2] = test system: filamentous bacterial cells; assay: Limited search of carbon sources: colony formation of filamentous bacterial cells from a soil suspension on carbon-source agar medium; conditions: soil suspension smeared on agar medium with the carbon source, 30° C., 5 days; relative value, carbon source-free medium = 100%
# Method: as §1
Compound,likelihood of assimilation of the carbon source by contaminating germs in soil [1],Other bacterial cells Average number of grown colonies ± standard error (other bacterial cells) [%],Filamentous bacterial cells Average number of grown colonies ± standard error [2] [%]
O=C[C@@H](O)[C@H](O)[C@H](O)CO [Arabinose],less likely to be assimilated,51 ± 2,100 ± 0
N=C(N)NCCC[C@H](N)C(=O)O [Arginine],less likely to be assimilated,99 ± 3,19 ± 8
N[C@@H](CC(=O)O)C(=O)O [Aspartic acid],less likely to be assimilated,32 ± 3,11 ± 9
O=C[C@H](O)[C@@H](O)[C@H](O[C@@H]1O[C@H](CO)[C@@H](O)[C@H](O)[C@H]1O)[C@H](O)CO [Cellobiose],–,76 ± 5,42 ± 18
O=C(CO)[C@@H](O)[C@H](O)[C@H](O)CO [Fructose],–,84 ± 3,100 ± 0
N[C@@H](CCC(=O)O)C(=O)O [Glutamic acid],–,66 ± 6,83 ± 14
NC(=O)CC[C@H](N)C(=O)O [Glutamine],–,66 ± 4,100 ± 0
NCC(=O)O [Glycine],–,69 ± 5,72 ± 2
N[C@@H](Cc1c[nH]cn1)C(=O)O [Histidine],–,62 ± 2,203 ± 32
O[C@H]1[C@H](O)[C@@H](O)[C@H](O)[C@@H](O)[C@H]1O [Inositol],less likely to be assimilated,57 ± 7,0 ± 0
CC[C@H](C)[C@H](N)C(=O)O [Isoleucine],less likely to be assimilated,44 ± 2,28 ± 2
OC[C@H]1O[C@@H](O[C@H]2[C@H](O)[C@@H](O)C(O)O[C@@H]2CO)[C@H](O)[C@@H](O)[C@H]1O (stereo partly drawn) [Lactose],–,77 ± 4,128 ± 2
CC(C)C[C@H](N)C(=O)O [Leucine],less likely to be assimilated,42 ± 3,67 ± 141
NCCCC[C@H](N)C(=O)O [Lysine],less likely to be assimilated,56 ± 5,33 ± 14
OC[C@@H](O)[C@@H](O)[C@H](O)[C@H](O)CO [Mannitol],less likely to be assimilated,54 ± 4,27 ± 17
CSCC[C@H](N)C(=O)O [Methionine],less likely to be assimilated,38 ± 4,38 ± 16

Compound,likelihood of assimilation of the carbon source by contaminating germs in soil [1],Other bacterial cells Average number of grown colonies ± standard error (other bacterial cells) [%],Filamentous bacterial cells Average number of grown colonies ± standard error [2] [%]
N[C@@H](Cc1ccccc1)C(=O)O [Phenylalanine],less likely to be assimilated,36 ± 6,47 ± 19
O=C(O)[C@@H]1CCCN1 [Proline],less likely to be assimilated,66 ± 4,11 ± 9
OC[C@@H](O)[C@@H](O)[C@@H](O)CO [Ribitol],–,67 ± 2,139 ± 11
N[C@@H](CO)C(=O)O [Serine],–,87 ± 3,131 ± 16
O=C([O-])CCCCC(=O)[O-].[Na+].[Na+] [Sodium adipate],–,122 ± 10,36 ± 18
OC[C@@H](O)[C@@H](O)[C@H](O)[C@@H](O)CO [Sorbitol],–,63 ± 5,128 ± 2
O=C(CO)[C@H](O)[C@@H](O)[C@H](O)CO [Sorbose],–,68 ± 3,128 ± 2
OC[C@H]1O[C@@](CO)(O[C@H]2O[C@H](CO)[C@@H](O)[C@H](O)[C@H]2O)[C@@H](O)[C@@H]1O [Sucrose],–,71 ± 4,211 ± 15
O=C(O)C(O)C(O)C(=O)O (stereo not drawn) [Tartaric acid],–,81 ± 3,64 ± 6
C[C@@H](O)[C@H](N)C(=O)O [Threonine],less likely to be assimilated,59 ± 5,0 ± 0
OC[C@H]1O[C@H](O[C@H]2O[C@H](CO)[C@@H](O)[C@H](O)[C@H]2O)[C@H](O)[C@@H](O)[C@@H]1O [Trehalose],less likely to be assimilated,51 ± 7,156 ± 5
N[C@@H](Cc1c[nH]c2ccccc12)C(=O)O [Tryptophan],–,100 ± 5,167 ± 18
N[C@@H](Cc1ccc(O)cc1)C(=O)O [Tyrosine],less likely to be assimilated,55 ± 4,81 ± 39
CC(C)[C@H](N)C(=O)O [Valine],less likely to be assimilated,38 ± 5,19 ± 8
Polygalacturonic acid,less likely to be assimilated,19 ± 2,8 ± 7
